The values below come from patent US12616713B2, “Methods for enhancing vascular density” (priority 2016, dated 2026).

In data set [1] the test system is C57BL/6J mice. Put plainly: Optoacoustic imaging of hindlimb soluble oxygen (sO2). In kind it is in vivo, mouse. The settings on record: 20-month old mice, photoacoustic tomography. How it is done: Optoacoustic imaging. An MSOT inVision 256-TF small animal imaging system (iThera Medical GmbH, Munich, Germany) was used (Morscher et al., 2014, Photoacoustics 2, 103-110). Mice were anesthetized with isoflurane (1.5-2%, 500 ml O2/min), and body portion below chest area was shaved using depilatory cream. The animals were then placed horizontally in the imaging chamber and three-dimensional scanning of the lower portion was performed as per manufacture's protocol. Briefly, a tunable optical parametric oscillator (OPO) pumped by an Nd:YAG laser provided excitation pulses with a duration of 9 ns at wavelengths from 680 nm to 980 nm at a repetition rate of 10 Hz with a wavelength tuning speed of 10 ms and a peak pulse energy of 100 mJ at 730 nm. Ten arms of a fiber bundle provided even illumination of a ring-shaped light strip of approx. 8 mm width. For ultrasound detection, 256 toroidally focused ultrasound transducers with a center frequency of 5 MHz (60% bandwidth), organized in a concave array of 270° angular coverage and a radius of curvature of 4 cm, were used.

For data set [2], the system named is C57BL/6J mice. Put plainly: Muscle capillaries in mice with lentiviral EC-specific SIRT1 knockdown. The settings on record: 20-month old mice, SIRT1 miRNA #5 lentivirus, NMN 400, NaHS 20, GYY4137 20 mg/kg/day, four weeks. The format is in vivo, mouse. As to the method: Lentiviral particles were concentrated by ultracentrifugation (cite) and viral titer was determined by (cite kit) and injected at 1×10^10 TU/mouse carrying SIRT1 or NT miRNAs to 20-mo old WT C57BL/6J mice (NIA) via retro-orbital injection. Mice received two consecutive injections behind alternate eyes two days apart. 10 days post final injection, mice were assigned to different treatment groups.
Freshly isolated whole quadriceps and gastrocnemius muscle samples were mounted in OCT compound (Tissue-Tek), placed in an isopentane bath and slowly cooled in liquid nitrogen. Transverse sections at 20 μm-thickness were sectioned on a cryostat (Leica). The sections were fixed in pre-cooled acetone (−20° C.) for 10 min and washed with PBS. Slides were then blocked in normal goat serum and 5% Blocking Reagent (PerkinElmer) in PBST (PBS with 0.1% Triton-X) for 1 h at room temperature, and then incubated with anti-CD31 (ab56299, Abcam) and anti-Laminin (L9393, Sigma), GFP (ab6556, Abcam) or SIRT1 (HPA006295, Sigma) antibodies diluted in blocking buffer overnight at 4° C. […] Images were acquired using a confocal fluorescence microscope (Nikon A1). Quantification of capillaries and capillary density were performed using ImageJ software. […]

Data set [3] concerns aortic rings from 18-month old mice. Put plainly: Aortic ring assay (ex vivo angiogenesis). In kind it is cell-based, mouse. The settings on record: 18-month old WT mice, VEGF 30 ng/mL, NMN 0.5 mM, 7 days, versus PBS. How it is done:
Aortic ring assay was performed according to the published protocol (Baker et al., 2012, Nat Protoc 7, 89-104). Briefly, thoracic aortas from mice were excised and transferred to Opti-MEM media. All extraneous fat, tissue and branching vessels were removed with forceps and a scalpel under a dissection microscope. The aortas were cut into ˜0.5 mm wide rings and serum starved overnight by incubating in Opti-MEM at 37° C./5% CO2. Next day, each aortic ring was embedded in 50 μL collagen matrix in a 96-well plate and incubated at 37° C./5% CO2 for 1 h. After embedding, the vessel sprouting was stimulated by supplementing the rings with 150 μL of Opti-MEM culture containing FBS (2.5%), with or without VEGF (30 ng/mL), or FGF (30 ng/mL) and incubating at 37° C./5% CO2 for 7 days. NMN (500 μM) was added to the media wherever mentioned and replaced every 3 days. The resulting sprouts were stained with BS1 lectin-FITC (Sigma) and imaged using fluorescence microscope. The number and total area of sprouts originating from aortic rings were quantified by ImageJ software.

A short description of data set [4]: Food and water intake, body weight and composition, motor and cardiac function of treated old mice. In kind it is in vivo, mouse. The note with it: 18-month old mice, NMN 400 mg/kg/day in drinking water, two months. From the text: SIRT1-iKO, SIRT1-Tg and SIRT1^STOP mice were described previously (Firestein et al., 2008, PLoS One 3, e2020; Price et al., 2012, Cell Metab 15, 675-690). Tie2Cre and Sirt1^flox/flox mice were purchased from Jackson Laboratory (Bar Harbor, ME). MCK-PGC-1α and MyogCre mice were gifts from Dr. Bruce Spiegelman (Dana Farber Cancer Center, MA) and Dr. Eric N. Olson (UT Southwestern, Dallas, TX), respectively. mT-STOP^flox/flox, Gfp mouse was generated in house by E.O.W., which consists of an allele driven by ubiquitous actin B promoter, which has loxP sites flanking membrane-targeted tandem dimer Tomato (mT) and transcriptional STOP cassette, followed by a GFP coding sequence. […] Mice were fasted for 6 h and blood glucose levels were measured by tail bleed (Accu Check Performa, Roche). Blood lactate was measured before and immediately after treadmill exercise training for 20 minutes at 15 meters/minute by tail bleed (Accutrend Plus, Roche). […] Urine was collected after a 2 h fast and analyzed for creatinine levels using a colorimetric assay kit (Cayman chemical, US) as per manufacturer's protocol. Motor coordination was assessed using the rotarod test as previously described ([…] et al., 2011, Plos One 6, e20336). […] On the 4th day, the animals were subjected to three trials on the accelerating roller (4-40 rpm in 4 min) and the time that the mice remained was recorded. […]

`NC(=O)c1ccc[n+]([C@@H]2O[C@H](COP(=O)([O-])O)[C@@H](O)[C@H]2O)c1` [NMN, nicotinamide mononucleotide]: the “soluble oxygen (sO2) levels in resting muscle, greater than vehicle-treated controls” value in data set [1] turned out to be 15%. Also, the “ability to increase vascularization in SIRT1 knockdown mice” value in data set [2] is on record as “blocked in the SIRT1 knockdown mice”. In addition, the “number of VEGF-mediated outgrowths or sprouts per aortic ring” value in data set [3] is on record as “doubled”. In addition, the “food intake, water consumption, body weights, body composition, motor learning skills and cardiac function” value in data set [4] is “had no effect”.
